{
  "source": "patent US20230067811A1",
  "about": "“MODULATING LYMPHATIC VESSELS IN NEUROLOGICAL DISEASE” (University of Virginia Patent Foundation, priority 2020, published 2023)",
  "system": "WT mice",
  "test": "Meningeal lymphatic vessel ablation (Visudyne plus photoconversion): lymphatic morphology",
  "format": "in vivo, mouse",
  "conditions": "1 week after Visudyne i.c.m. plus transcranial photoconversion",
  "method": "Adult 2 months-old WT mice were injected (i.c.m.) with Visudyne (5 μL) followed by a transcranial photoconversion step (Vis./photo.) to ablate meningeal lymphatic vessels. Control mice were injected with Visudyne without photoconversion (Vis.). One week later, mice were injected with 5 μL of a suspension of fluorescent microspheres (1 μm in diameter) into the CSF and 15 minutes later the lymphatic vessel afferent to the deep cervical lymph node (dCLN) was imaged by in vivo stereomicroscopy. Representative images of skull cap show microspheres and lymphatic vessels stained for LYVE-1 around the confluence of sinuses (COS) and transverse sinus (TS) at the dorsal brain meninges or around the sigmoid (SS) and petrosquamosal (PSS) sinuses at the basal brain meninges (scale bars, 500 μm). […]\nImmunohistochemistry, imaging and quantifications. […]",
  "data": [
    {"substance": "verteporfin [Visudyne]", "values": [
      {"measurement": "lymphatic vasculature lining the transverse sinus (dorsal meninges)", "value": "efficient ablation"},
      {"measurement": "lymphatic vessels around the SS and PSS (basal meninges)", "value": "no significant changes"}
    ]}
  ]
}
